The source of these data is patent publication US20230165851A1, “6'-METHOXYCINCHONAN-9-OLS FOR THE TREATMENT OF CORONAVIRAL INFECTIONS” (Immunologik GmbH, priority 2020, published 2023).

Series [1] has as its system Vero-B4 cells. In words: WST-1 cell viability (cytotoxicity) assay in non-infected Vero-B4 cells. Particulars: 3 days; for toxic effect (WST assay): antivirally effective concentrations. As to the method:
Toxicity was assessed with a WST assay. Herein viable cells with an intact mitochondrial succinate-tetrazolium dehydrogenase system effect an enzymatic conversion of the feebly red tetrazolium salt WST-1 (4-[3-(4-iodophenyl)-2-(4-nitrophenyl)-2H-5-tetrazolio]-1,3 benzene disulfonate) into dark red formazan. This color change can be measured photometrically in a spectrophotometer. Thus, the WST assay is a very sensitive method for measuring the toxicity of substances on the cell metabolism.
In FIG. 4 the percentage of viable cells is depicted in comparison to untreated cells. The value for untreated cells was set to 100%. 1 μM staurosporine (an indolocarbazole compound from Streptomyces staurosporeus, an apoptosis inducer) was used as positive control.
In FIG. 8 the percentage of viable cells is depicted in comparison to untreated cells wherein the value for untreated cells was set to 100%. Again 1 μM staurosporine was used as positive control.
(Tetrazolium assays rely on reduction of a dye to a coloured formazan, in cell work by metabolically active cells.)

For series [2], the system named is SARS-CoV-2. It counts as cell-based. The conditions noted are these: infected Vero-B4 cells, 3 dpi; for inhibition of SARS-CoV-2 protein generation compared with same/respective concentration of chloroquine or hydroxychloroquine (densitometry): comparators at 10 μM.
Series [3] concerns SARS-CoV-2. Type of series: cell-based. Particulars: infected Vero-B4 cells, 3 dpi.
Setting [4] is: quinine sulfate series up to 100 μM.

Where a name gives a salt, the structure may show the parent alone. Read-outs that look alike come from different tables or passages of the source.

For the molecule `C=C[C@H]1C[N@@]2CC[C@H]1C[C@@H]2[C@@H](O)c1ccnc2ccc(OC)cc12` [quinidine sulfate], in series [1], the “toxic effect (WST assay)” value is reported as “did not display any significant toxic effect”. Also, in series [1] (tested 2.5 to 80 μM), the “concentration up to which no toxic effect was detectable (WST assay)” value is given as “Up to 80 μM”. In series [2] (20 μM), the “block of virus replication (Western blot)” value is recorded as “nearly complete block of virus replication”. Also, the “inhibition of SARS-CoV-2 replication (Western blot)” value in series [2] (2.5, 5, 10 and 20 μM) is given as “dose-dependent inhibition”. Further, the “generation of SARS-CoV-2 proteins (densitometric evaluation of nucleoprotein in virus fraction)” value in series [2] (2.5 to 20 μM) is given as “inhibited in a dose-dependent manner”. In addition, the “inhibition of SARS-CoV-2 protein generation compared with same/respective concentration of chloroquine or hydroxychloroquine (densitometry)” value in series [2] is “higher percentage”. In addition, the “reduction compared with 10 μM chloroquine or 10 μM hydroxychloroquine (Western blot)” value in series [2] (quinidine sulfate series up to 20 μM) was “clearly higher”. Also, the “reduction of SARS-CoV-2 RNA copies (qRT-PCR)” value in series [3] (2.5 μM, 5 μM, 10 μM and 20 μM) is reported as “dose-dependent reduction”; in series [3] (10 μM), “approximately 82%”; in series [3] (20 μM), “approximately 97%”. The “reduction compared with 10 μM chloroquine or 10 μM hydroxychloroquine (qRT-PCR)” value in series [3] (20 μM) was “significant better reduction”.

As to `C=C[C@H]1C[N@@]2CC[C@H]1C[C@H]2[C@H](O)c1ccnc2ccc(OC)cc12` [quinine sulfate], the “toxic effect (WST assay)” value in series [1] was “did not display any significant toxic effect”. Besides, in series [2] (100 nM to 100 μM), the “generation of SARS-CoV-2 proteins (densitometric evaluation of nucleoprotein in virus fraction)” value is given as “inhibited in a dose-dependent manner”. Besides, the “inhibition of SARS-CoV-2 replication (Western blot)” value in series [2] (100 nM, 1 μM, 10 μM and 100 μM) was “dose-dependent inhibition”. For the same molecule, in series [2] (100 μM), the “block of virus replication (Western blot)” value is “complete block of virus replication”. Moreover, the “inhibition of SARS-CoV-2 protein generation compared with same/respective concentration of chloroquine or hydroxychloroquine (densitometry)” value in series [2] was “higher percentage”. Also, the “reduction compared with 10 μM chloroquine or 10 μM hydroxychloroquine (Western blot)” value in series [2] (setting [4]) is reported as “significantly higher”. Also, the “reduction in the amount of SARS-CoV-2 RNA copies (qRT-PCR)” value in series [3] (100 nM, 1 μM, 10 μM and 100 μM) is given as “dose-dependent reduction”. In addition, the “reduction of SARS-CoV-2 RNA copies (qRT-PCR)” value in series [3] (10 μM) was “approximately 85%”. In addition, in series [3] (100 μM), the “block of virus spread (qRT-PCR)” value was “complete block of virus spread”. In series [3] (setting [4]), the “reduction compared with 10 μM chloroquine or 10 μM hydroxychloroquine (qRT-PCR)” value is “significantly higher”.
